Assay results: patent publication US20220072083A1, “COMPOSITION FOR IMPROVING OR PREVENTING NONALCOHOLIC FATTY LIVER” (KOHJIN LIFE SCIENCES CO., LTD., priority 2015, published 2022)

How the values were obtained:
[1] = system: Mice (C57/B6J, 8 weeks old male) fed with high-fat food
Excerpt: Mice (C57/B6J, 8 weeks old male) were divided into 4 groups (5 animals each), and the first group (DB) was freely fed with ordinary food (CertifiedDiet “MF” manufactured by Oriental Yeast Co., ltd.). The second group (HFD) was freely fed with high-fat food (High Fat Diet 32, manufactured by CLEA Japan, Inc.), […].
When the mouse was 20 weeks old, the body weight, the liver weight, the serum aspartate aminotransferase (AST), the alanine aminotransferase (ALT), the serum triglyceride (TG), the free fatty acid value (FFA) and the total cholesterol value (T-cho) were measured.

[2] = system: subjects who had NAFLD in 31 IU/L or more of ALT
[3] = HFD6 (6 mg/kg/day) and HFD60 (60 mg/kg/day) groups in comparison to the HFD group, 20 weeks old

Structure (SMILES): N[C@@H](CCC(=O)N[C@@H](CS)C(=O)NCC(=O)O)C(=O)O [glutathione]
- serum AST, ALT, TG, FFA, T-cho: comparison of HFD6 group and HFD60 group ([1]; 6 versus 60 mg/kg/day glutathione): decrease dependently on the concentration
- serum ALT [1, 3]: significant decrease
- serum AST [1, 3]: significant decrease
- serum FFA (free fatty acid value) [1, 3]: significant decrease
- serum T-cho (total cholesterol value) [1, 3]: significant decrease
- serum TG (triglyceride value) [1, 3]: significant decrease
- deposition of fat on the liver by high-fat food ([1]; concluded from liver weight and liver/body weight ratio): suppressed
- liver weight ([1]; high-fat food mice, glutathione 6 and 60 mg/kg/day in water, 20 weeks old): decreased dependently on the concentration
- body weight ([1]; high-fat food mice, glutathione 6 or 60 mg/kg/day in water): decrease of the body weight was recognized
- improvement of ALT after the administration in comparison to ALT before the administration (0 wk) ([2]; Case IDs 1 to 9 (group affected), at least one week after initiation of administration): ≥ 20%
- FibroScan (after treatment) CAP ([2]; after treatment, oral glutathione 300 mg per day, one subject (Case ID) per table row): 280 dBe
